Literature values, collected in patent publication US20260232589A1, “NANOPREPARATIONS LOADED WITH TRABECTEDIN AND PACLITAXEL” (SHANGHAI JIAO TONG UNIVERSITY, priority 2023, published 2026).

Test system: Ly6Chi monocytes
Conditions: literature reports, after trabectedin administration

Structure (SMILES): COc1cc2c(cc1O)CCN[C@]21CS[C@@H]2c3c(OC(C)=O)c(C)c4c(c3[C@H](COC1=O)N1[C@@H]2[C@H]2c3c(cc(C)c(OC)c3O)C[C@@H]([C@@H]1O)N2C)OCO4 [trabectedin]
- number of Ly6Chi monocytes in the peripheral blood of mice: decreases
